The text below walks through data of US12703729B2, “GIP agonist compounds and methods” (Zealand Pharma A/S, priority 2014, dated 2026).

Starred links: 1 amine or outer side, 2 acyl side, 3 side chain; linkers in the order of their positions; H or OH if unused. Non-standard residues stand in square brackets, D forms with d. Residues, ends and D or L forms follow the SMILES beside them. Groups on a side chain read outwards from the residue. *: point of attachment. X1 = O=C(O)CCCCCCCCCCCCCCCCCCC(=O)N1CCN(CC(=O)*)CC1; C20 diacid = O=C(O)CCCCCCCCCCCCCCCCCCC(=O)*; γGlu = O=C(O)[C@H](CCC(=O)[*:2])N[*:1]; AEEA = NCCOCCOCC(=O)O; Aib = CC(C)(N)C(=O)O

One experiment deals with T1, human GIP R (Homo sapiens, UniProt P48546).
T1 sequence (P48546 22-466): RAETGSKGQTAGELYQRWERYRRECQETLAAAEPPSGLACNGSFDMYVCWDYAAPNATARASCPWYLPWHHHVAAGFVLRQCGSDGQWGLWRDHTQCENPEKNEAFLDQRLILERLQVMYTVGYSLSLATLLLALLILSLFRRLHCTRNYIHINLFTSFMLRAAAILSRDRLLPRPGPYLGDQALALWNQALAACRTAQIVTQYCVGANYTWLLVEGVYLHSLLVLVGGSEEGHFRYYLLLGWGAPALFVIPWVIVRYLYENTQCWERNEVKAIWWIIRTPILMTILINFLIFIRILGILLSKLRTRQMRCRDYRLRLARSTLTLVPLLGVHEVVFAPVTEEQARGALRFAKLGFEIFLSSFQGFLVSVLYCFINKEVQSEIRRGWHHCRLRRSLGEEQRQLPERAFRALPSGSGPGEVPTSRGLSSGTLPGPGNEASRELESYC
Put plainly: cell-based.

Experiment [1] concerns the target human GLP-1 receptor (GLP-1R) (Homo sapiens, UniProt P43220). Put plainly: Activity assay at human GLP-1 receptor, cAMP induction (AlphaScreen), Example 3.
Experiment [2] deals with T2, human GIP receptor (GIP R) (Homo sapiens, UniProt P48546).
T2 sequence (P48546 22-466): T1 sequence (P48546 22-466)
The experiment is described as follows: Activity assay at human GIP receptor, cAMP induction (AlphaScreen), Example 3. For orientation: Alpha assays give light when donor and acceptor beads are brought close together.

Sequence of human GLP-1 receptor (GLP-1R) (P43220 24-463): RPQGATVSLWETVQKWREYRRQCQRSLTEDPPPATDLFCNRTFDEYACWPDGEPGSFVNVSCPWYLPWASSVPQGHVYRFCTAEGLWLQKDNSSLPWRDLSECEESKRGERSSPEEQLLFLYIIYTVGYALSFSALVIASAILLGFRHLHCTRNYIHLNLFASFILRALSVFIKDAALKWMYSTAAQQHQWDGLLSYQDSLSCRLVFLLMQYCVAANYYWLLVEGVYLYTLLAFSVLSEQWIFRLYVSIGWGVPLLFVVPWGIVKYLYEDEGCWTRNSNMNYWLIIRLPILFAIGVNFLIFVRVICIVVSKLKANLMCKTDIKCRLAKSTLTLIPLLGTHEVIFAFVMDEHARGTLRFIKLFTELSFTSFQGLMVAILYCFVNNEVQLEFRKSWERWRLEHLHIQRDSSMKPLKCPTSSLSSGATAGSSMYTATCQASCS

A word on the EC50: it is the concentration that produces a half-maximal response. A high value points to lower potency in that assay. As for `CC[C@H](C)[C@H](NC(=O)[C@H](CCCCN)NC(=O)[C@H](CC(=O)O)NC(=O)[C@H](CC(C)C)NC(=O)[C@H](CCC(=O)O)NC(=O)[C@@H](NC(=O)[C@H](CO)NC(=O)[C@H](Cc1ccc(O)cc1)NC(=O)[C@H](CC(=O)O)NC(=O)[C@H](CO)NC(=O)[C@@H](NC(=O)[C@H](Cc1ccccc1)NC(=O)[C@@H](NC(=O)CNC(=O)[C@H](CCC(=O)O)NC(=O)C(C)(C)NC(=O)[C@@H](N)Cc1ccc(O)cc1)[C@@H](C)O)[C@@H](C)CC)[C@@H](C)CC)C(=O)N[C@@H](C)C(=O)N[C@@H](C)C(=O)N[C@@H](CCC(N)=O)C(=O)N[C@@H](CC(=O)O)C(=O)N[C@@H](Cc1ccccc1)C(=O)N[C@H](C(=O)N[C@@H](CCC(=O)O)C(=O)N[C@@H](Cc1c[nH]c2ccccc12)C(=O)N[C@@H](CC(C)C)C(=O)N[C@@H](CC(C)C)C(=O)N[C@@H](C)C(=O)NCC(=O)N1CCC[C@H]1C(=O)N[C@@H](CO)C(=O)N[C@@H](CO)C(=O)NCC(=O)N[C@@H](C)C(=O)N1CCC[C@H]1C(=O)N1CCC[C@H]1C(=O)N1CCC[C@H]1C(=O)N[C@@H](CO)C(=O)N[C@@H](CCCCNC(=O)COCCOCCNC(=O)COCCOCCNC(=O)CN1CCN(C(=O)CCCCCCCCCCCCCCCCCCC(=O)O)CC1)C(N)=O)[C@@H](C)CC` [Compound 26] (H-Y[Aib]EGTFISDYSIELDKIAAQDFIEWLLAGPSSGAPPPSK([AEEA-AEEA-X1])-NH2), the EC50 was 0.017 nM on human GIP R, greater than 10 nM in experiment [1] and 0.032 nM in experiment [2].
The corresponding values for `CC[C@H](C)[C@H](NC(=O)[C@H](CCCCN)NC(=O)[C@H](CC(=O)O)NC(=O)[C@H](CC(C)C)NC(=O)[C@H](CCC(=O)O)NC(=O)[C@@H](NC(=O)[C@H](CO)NC(=O)[C@H](Cc1ccc(O)cc1)NC(=O)[C@H](CC(=O)O)NC(=O)[C@H](CO)NC(=O)[C@@H](NC(=O)[C@H](Cc1ccccc1)NC(=O)[C@@H](NC(=O)CNC(=O)[C@H](CCC(=O)O)NC(=O)C(C)(C)NC(=O)[C@@H](N)Cc1ccc(O)cc1)[C@@H](C)O)[C@@H](C)CC)[C@@H](C)CC)C(=O)N[C@@H](C)C(=O)N[C@@H](C)C(=O)N[C@@H](CCC(N)=O)C(=O)N[C@@H](CC(=O)O)C(=O)N[C@@H](Cc1ccccc1)C(=O)N[C@H](C(=O)N[C@@H](CCC(=O)O)C(=O)N[C@@H](Cc1c[nH]c2ccccc12)C(=O)N[C@@H](CC(C)C)C(=O)N[C@@H](CC(C)C)C(=O)N[C@@H](C)C(=O)NCC(=O)N1CCC[C@H]1C(=O)N[C@@H](CO)C(=O)N[C@@H](CO)C(=O)NCC(=O)N[C@@H](C)C(=O)N1CCC[C@H]1C(=O)N1CCC[C@H]1C(=O)N1CCC[C@H]1C(=O)N[C@@H](CO)C(=O)N[C@@H](CCCCNC(=O)COCCOCCNC(=O)COCCOCCNC(=O)CC[C@H](NC(=O)CCCCCCCCCCCCCCCCCCC(=O)O)C(=O)O)C(N)=O)C(C)C` [Compound 27] (H-Y[Aib]EGTFISDYSIELDKIAAQDFVEWLLAGPSSGAPPPSK([AEEA-AEEA-γGlu-C20 diacid])-NH2) are 0.013 nM, greater than 10 nM and 0.017 nM.
The like results for `CC[C@H](C)[C@H](NC(=O)[C@H](CCCCN)NC(=O)[C@H](CC(=O)O)NC(=O)[C@H](CC(C)C)NC(=O)[C@H](CCC(=O)O)NC(=O)[C@@H](NC(=O)[C@H](CO)NC(=O)[C@H](Cc1ccc(O)cc1)NC(=O)[C@H](CC(=O)O)NC(=O)[C@H](CO)NC(=O)[C@@H](NC(=O)[C@H](Cc1ccccc1)NC(=O)[C@@H](NC(=O)CNC(=O)[C@H](CCC(=O)O)NC(=O)C(C)(C)NC(=O)[C@@H](N)Cc1ccc(O)cc1)[C@@H](C)O)[C@@H](C)CC)[C@@H](C)CC)C(=O)N[C@@H](C)C(=O)N[C@@H](CCC(N)=O)C(=O)N[C@@H](CCCNC(=N)N)C(=O)N[C@@H](C)C(=O)N[C@@H](Cc1ccccc1)C(=O)N[C@H](C(=O)N[C@@H](CCC(=O)O)C(=O)N[C@@H](Cc1c[nH]c2ccccc12)C(=O)N[C@@H](CC(C)C)C(=O)N[C@@H](CC(C)C)C(=O)N[C@@H](C)C(=O)N[C@@H](CCC(N)=O)C(=O)NCC(=O)N1CCC[C@H]1C(=O)N[C@@H](CO)C(=O)N[C@@H](CO)C(=O)NCC(=O)N[C@@H](C)C(=O)N1CCC[C@H]1C(=O)N1CCC[C@H]1C(=O)N1CCC[C@H]1C(=O)N[C@@H](CO)C(=O)N[C@@H](CCCCNC(=O)COCCOCCNC(=O)COCCOCCNC(=O)CC[C@H](NC(=O)CCCCCCCCCCCCCCCCCCC(=O)O)C(=O)O)C(N)=O)[C@@H](C)CC` [Compound 28] (H-Y[Aib]EGTFISDYSIELDKIAQRAFIEWLLAQGPSSGAPPPSK([AEEA-AEEA-γGlu-C20 diacid])-NH2) were, in that order, 0.007 nM, greater than 3 nM and 0.013 nM.
Consider `CC[C@H](C)[C@H](NC(=O)[C@H](CO)NC(=O)[C@H](Cc1ccc(O)cc1)NC(=O)[C@H](CC(=O)O)NC(=O)[C@H](CO)NC(=O)[C@@H](NC(=O)[C@H](Cc1ccccc1)NC(=O)[C@@H](NC(=O)CNC(=O)[C@H](CCC(=O)O)NC(=O)C(C)(C)NC(=O)[C@@H](N)Cc1ccc(O)cc1)[C@@H](C)O)[C@@H](C)CC)C(=O)N[C@@H](CCC(=O)O)C(=O)N[C@@H](CC(C)C)C(=O)N[C@@H](CC(=O)O)C(=O)N[C@@H](CCCCN)C(=O)N[C@@H](CCCCNC(=O)COCCOCCNC(=O)COCCOCCNC(=O)CC[C@H](NC(=O)CCCCCCCCCCCCCCCCCCC(=O)O)C(=O)O)C(=O)N[C@@H](C)C(=O)N[C@@H](C)C(=O)N[C@@H](CCC(N)=O)C(=O)N[C@@H](C)C(=O)N[C@@H](Cc1ccccc1)C(=O)N[C@H](C(=O)N[C@@H](CC(N)=O)C(=O)N[C@@H](Cc1c[nH]c2ccccc12)C(=O)N[C@@H](CC(C)C)C(=O)N[C@@H](CC(C)C)C(=O)N[C@@H](C)C(=O)NCC(=O)N1CCC[C@H]1C(=O)N[C@@H](CO)C(=O)N[C@@H](CO)C(=O)NCC(=O)N[C@@H](C)C(=O)N1CCC[C@H]1C(=O)N1CCC[C@H]1C(=O)N1CCC[C@H]1C(=O)N[C@@H](CO)C(N)=O)C(C)C` [Compound 29] (H-Y[Aib]EGTFISDYSIELDKK([AEEA-AEEA-γGlu-C20 diacid])AAQAFVNWLLAGPSSGAPPPS-NH2), for which the figures for the EC50 (at human GIP R; in experiment [1]; in experiment [2]) were 0.014 nM, greater than 100 nM and 0.007 nM, respectively.
The corresponding values for `CC[C@H](C)[C@H](NC(=O)[C@H](CO)NC(=O)[C@H](Cc1ccc(O)cc1)NC(=O)[C@H](CC(=O)O)NC(=O)[C@H](CO)NC(=O)[C@@H](NC(=O)[C@H](Cc1ccccc1)NC(=O)[C@@H](NC(=O)CNC(=O)[C@H](CCC(=O)O)NC(=O)C(C)(C)NC(=O)[C@@H](N)Cc1ccc(O)cc1)[C@@H](C)O)[C@@H](C)CC)C(=O)N[C@@H](CCC(=O)O)C(=O)N[C@@H](CC(C)C)C(=O)N[C@@H](CC(=O)O)C(=O)N[C@@H](CCCCN)C(=O)N[C@@H](CCCCNC(=O)COCCOCCNC(=O)COCCOCCNC(=O)CC[C@H](NC(=O)CCCCCCCCCCCCCCCCCCC(=O)O)C(=O)O)C(=O)N[C@@H](C)C(=O)N[C@@H](C)C(=O)N[C@@H](CCC(N)=O)C(=O)N[C@@H](CC(=O)O)C(=O)N[C@@H](Cc1ccccc1)C(=O)N[C@H](C(=O)N[C@@H](CC(N)=O)C(=O)N[C@@H](Cc1c[nH]c2ccccc12)C(=O)N[C@@H](CC(C)C)C(=O)N[C@@H](CC(C)C)C(=O)N[C@@H](C)C(=O)N[C@@H](C)C(=O)NCC(=O)N1CCC[C@H]1C(=O)N[C@@H](CO)C(=O)N[C@@H](CO)C(=O)NCC(=O)N[C@@H](C)C(=O)N1CCC[C@H]1C(=O)N1CCC[C@H]1C(=O)N1CCC[C@H]1C(=O)N[C@@H](CO)C(N)=O)C(C)C` [Compound 30] (H-Y[Aib]EGTFISDYSIELDKK([AEEA-AEEA-γGlu-C20 diacid])AAQDFVNWLLAAGPSSGAPPPS-NH2) are 0.009 nM, greater than 10 nM and 0.014 nM.
